Test results published in patent US4470840A, “1-Triacontanol plant growth stimulator formulations” (Biochemical Research Corporation, priority 1981, dated 1984).

Legend:
[1] = tested on: Hybrid Sweet Corn Seedlings (cv. Silver Queen); experiment: Greenhouse trial: dry weight and water uptake of seedlings after foliar spraying; assay type: in vivo
Protocol: In general, greenhouse trials were conducted as follows: eight to twelve seeds were sown per pot in Peat-Lite® Mix and received an average of 100 ml of water per day. After plants had the third true leaf (average), the various formulations were applied to the leaves as a fine mist at air temperatures listed in Table 1. Temperatures above 20° C., preferably 25°-30° C., are preferred.
The 1-triacontanol formulation most generally used consisted of a concentrate containing 5 mg of 1-triacontanol dissolved in 1 liter of acetone, with 20 ml of the concentrate being further dissolved to 1 liter with water having a pH between 8 and 10, with over a pH of 11 also being effective. The pH was adjusted with aqueous NaOH and the concentrate added just prior to spraying.
When other plant growth substances were added to the formulations, these were added either to the concentrate in the polar organic solvent or alternatively in the aqueous solution, depending on the solubility of the plant growth substance. All metal salts were added to the water used to spray the 1-triacontanol formulations. After spraying, preferably about four to nine days or more, plants were harvested with roots, and fresh weights were obtained. Plants were then dried in an oven, preferably at a temperature below 100° C., until constant weight was obtained, and dry weight values were obtained for each plot. Subtraction of the dry weights from the fresh weights gave the water uptake weights (water content) of each plot. The weights of the above mentioned seedlings were compared to the control weights to obtain the percent increases.
It is particularly advantageous to arrange each of the potted plants in size range categories corresponding to the number of replications used. For example, if five replications are employed, plants are divided into five size categories, normally measured by the height of the plants. Treatments are then assigned randomly within each block (size category). This removes the variation due to plant size for statistical purposes, as is well practiced in the art. The resulting data is analyzed using any appropriate means, which may include the least significant difference method (L.S.D. method), Duncan's multiple range test, as used here (Biometrics, 11: 1 (1955)), or other means.

[2] = tested on: Hybrid Sweet Corn Seedlings (cv. Silver Queen); experiment: Lengths of stems and total plant length of seedlings sprayed Day 7; assay type: in vivo; conditions: T = 1-triacontanol 0.1 mg/liter; for Length "a" (stem to the first leaf): control 11.5 cm; for Length "b" (total plant length): control 25.0 cm
[3] = 14-day old seedlings, plant growth substance 0.01 mM, with 1-triacontanol 0.1 mg/liter
[4] = 14-day old seedlings, plant growth substance 0.01 mM, without 1-triacontanol
[5] = plant growth substance 0.001 mM, CaCl2 50 mM, 1-triacontanol 0.5 mg per liter, pH 8
[6] = plant growth substance 0.01 mM, CaCl2 50 mM, 1-triacontanol 0.5 mg per liter, pH 8
[7] = plant growth substance 0.10 mM, CaCl2 50 mM, 1-triacontanol 0.5 mg per liter, pH 8
[8] = plant growth substance 0.04 mM, CaCl2 10 mM, 1-triacontanol 0.5 mg per liter, pH 8
[9] = plant growth substance 0.04 mM, CaCl2 50 mM, 1-triacontanol 0.5 mg per liter, pH 8

Row | SMILES | Increases, H2O uptake [1, 3] | Increases, dry wt. [1, 3] | Increases, H2O uptake [1, 4] | Increases, dry wt. [1, 4] | Increases, H2O uptake [1, 5] | Increases, dry wt. [1, 5] | Increases, H2O uptake [1, 6] | Increases, dry wt. [1, 6] | Increases, H2O uptake [1, 7] | Increases, dry wt. [1, 7] | Increase in length "a" [2] | Increase in length "b" [2] | Length "a" (stem to the first leaf) [2] | Length "b" (total plant length) [2] | Increases, H2O uptake [1, 8] | Increases, dry wt. [1, 8] | Increases, H2O uptake [1, 9] | Increases, dry wt. [1, 9]
1 | O=C(O)Cc1c[nH]c2ccccc12 [IAA, indole-3-acetic acid, reference compound] | -5% | +2% | -7% | +4% | +18% | +37% | +25% | +56% | +14% | +36% | 0% | -2% | 11.6 cm | 24.4 cm |  |  |  | 
2 | C=C1C[C@]23C[C@@]1(O)CC[C@H]2[C@@]12C=C[C@H](O)[C@@](C)(C(=O)O1)[C@H]2[C@@H]3C(=O)O [GA3, gibberellic acid, reference compound] | -3% | -15% | -6% | -24% |  |  |  |  |  |  | -3% | +6% | 11.2 cm | 26.6 cm | +15% | +16% | +13% | +22%
